The values below come from the supplement of paper PMC8967900.
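Also: ALL cell lines in 384-well plates, five doses spanning 10,000-fold, each plate scaled between vehicle and 100 µmol/L benzalkonium chloride controls, sDSS an adapted area-under-curve metric.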

The first assay concerns ALL-PO. Put plainly: selective drug sensitivity score (sDSS, relative to normal bone marrow) (sDSS (score)); higher = more potent and effective on the cell line relative to normal bone marrow cells. Particulars: 72 h.
Consider `Nc1ncnc2c1c(COc1cccc(Cl)c1)nn2C1CCOCC1` (top concentration 10000 nM), for which the “selective drug sensitivity score” value was 0.66.
Same read-out and setting: under `CC1(C)CNc2cc(NC(=O)c3cccnc3NCc3ccncc3)ccc21` [Motesanib] (top concentration 10000 nM) stands -0.22.
As for `NC(=O)c1cccc(-c2cccc(OC(=O)NC3CCCCC3)c2)c1` [URB597] (top concentration 1000 nM), the “selective drug sensitivity score” value is -0.46.
Still for that read-out and setting: under `CCCN(CCC)C(=O)C1=Cc2ccc(-c3ccc(C(=O)N4CCCC4)cc3)cc2N=C(N)C1` [Motolimod] (top concentration 10000 nM) stands -3.88; under `CCCOc1ccn2c(C(C)=O)cc(-c3ccccc3S(C)(=O)=O)c2c1` [GSK2801] (top concentration 10000 nM), 0.04.
In the case of `Nc1cc(COc2c(Cl)cc(C[C@H](N)C(=O)O)cc2Cl)c2oc(-c3ccccc3)nc2c1` [JPH203] (top concentration 5000 nM), the “selective drug sensitivity score” value stood at 0.
Still for that read-out and setting: under `CC/C(=C(\c1ccccc1)c1ccc(OCCN(C)C)cc1)c1ccccc1` [Tamoxifen] (top concentration 10000 nM) stands 2.72.
In the case of `NC(=S)N/N=C/c1ncccc1N` [Triapine] (top concentration 10000 nM), the “selective drug sensitivity score” value is 2.28.
Regarding `C=CCN(/C=C1/C(=O)O[C@H](COC)[C@@]2(C)C1=C(O)C(=O)C1=C2[C@H](OC(C)=O)C[C@]2(C)C(=O)CC[C@@H]12)CC=C` [Sonolisib] (top concentration 10000 nM), the “selective drug sensitivity score” value was found to be 2.44.
As for `C[C@H]1CNCCCN1S(=O)(=O)c1cccc2cncc(F)c12` [Ripasudil] (top concentration 10000 nM), the “selective drug sensitivity score” value was -0.22.
In the case of `C[C@@H](Oc1cc(-c2cnn(C3CCNCC3)c2)cnc1N)c1c(Cl)ccc(F)c1Cl` [Crizotinib] (top concentration 1000 nM), the “selective drug sensitivity score” value was found to be 1.46.
Consider `CCN(CC)CCCC(C)Nc1ccnc2cc(Cl)ccc12` (stereo not given) [Chloroquine] (top concentration 100000 nM), for which the “selective drug sensitivity score” value was -1.64.
Turning to `N#CC(c1ccnc(OCc2ccc(CN3CCOCC3)cc2)n1)c1nc2ccccc2s1` (stereo not given) [Bentamapimod] (top concentration 10000 nM), the “selective drug sensitivity score” value was determined as 6.24.
In the case of `COc1cc(N2CCC(N3CCN(C)CC3)CC2)ccc1Nc1ncnc(Nc2ccccc2S(=O)(=O)C(C)C)n1` [ASP3026] (top concentration 10000 nM), the “selective drug sensitivity score” value was 5.36.
As for `COCCOc1cnc2ccn([C@H](C)c3nnc4c(F)cc(-c5cnn(C)c5)cn34)c(=O)c2c1` [AMG-337] (top concentration 10000 nM), the “selective drug sensitivity score” value is -0.06.
For `Cc1cnc(NC(=O)Nc2cc(Br)c(C)cc2OC[C@@H]2CNCCO2)cn1` [Rabusertib] (top concentration 1000 nM), the “selective drug sensitivity score” value amounted to 0.46.
In the case of `CNC(=O)c1ccc(-c2cnc3ncc(Cc4ccc5ncccc5c4)n3n2)cc1F` [Capmatinib] (top concentration 1000 nM), the “selective drug sensitivity score” value is -0.06.
As to `COc1cc2/c(=N/c3ccc(Br)cc3F)nc[nH]c2cc1OCC1CCN(C)CC1` [Vandetanib] (top concentration 1000 nM), the “selective drug sensitivity score” value was -0.22.

The next assay concerns MOLT-4. Described as above. Particulars: 72 h.
For `Nc1ncnc2c1c(COc1cccc(Cl)c1)nn2C1CCOCC1` (top concentration 10000 nM), the “selective drug sensitivity score” value was determined as 0.16.
Regarding `CC1(C)CNc2cc(NC(=O)c3cccnc3NCc3ccncc3)ccc21` [Motesanib] (top concentration 10000 nM), the “selective drug sensitivity score” value is -0.22.
With `NC(=O)c1cccc(-c2cccc(OC(=O)NC3CCCCC3)c2)c1` [URB597] (top concentration 1000 nM), the “selective drug sensitivity score” value was -0.46.
Take `CCCN(CCC)C(=O)C1=Cc2ccc(-c3ccc(C(=O)N4CCCC4)cc3)cc2N=C(N)C1` [Motolimod] (top concentration 10000 nM): the “selective drug sensitivity score” value was -4.08.
On the same count and under the same terms, the value for `CCCOc1ccn2c(C(C)=O)cc(-c3ccccc3S(C)(=O)=O)c2c1` [GSK2801] (top concentration 10000 nM) was -0.16; that for `Nc1cc(COc2c(Cl)cc(C[C@H](N)C(=O)O)cc2Cl)c2oc(-c3ccccc3)nc2c1` [JPH203] (top concentration 5000 nM) was 0.
As to `CC/C(=C(\c1ccccc1)c1ccc(OCCN(C)C)cc1)c1ccccc1` [Tamoxifen] (top concentration 10000 nM), the “selective drug sensitivity score” value is -0.98.
As for `NC(=S)N/N=C/c1ncccc1N` [Triapine] (top concentration 10000 nM), the “selective drug sensitivity score” value worked out at 1.98.
Same read-out and setting: under `C=CCN(/C=C1/C(=O)O[C@H](COC)[C@@]2(C)C1=C(O)C(=O)C1=C2[C@H](OC(C)=O)C[C@]2(C)C(=O)CC[C@@H]12)CC=C` [Sonolisib] (top concentration 10000 nM) stands -0.76.
For the compound `C[C@H]1CNCCCN1S(=O)(=O)c1cccc2cncc(F)c12` [Ripasudil] (top concentration 10000 nM), the “selective drug sensitivity score” value is -0.22.
Turning to `C[C@@H](Oc1cc(-c2cnn(C3CCNCC3)c2)cnc1N)c1c(Cl)ccc(F)c1Cl` [Crizotinib] (top concentration 1000 nM), the “selective drug sensitivity score” value was -0.54.
Regarding `CCN(CC)CCCC(C)Nc1ccnc2cc(Cl)ccc12` (stereo not given) [Chloroquine] (top concentration 100000 nM), the “selective drug sensitivity score” value is -7.24.
The same measure, in the same setting: the value for `N#CC(c1ccnc(OCc2ccc(CN3CCOCC3)cc2)n1)c1nc2ccccc2s1` (stereo not given) [Bentamapimod] (top concentration 10000 nM) was 1.74; that for `COc1cc(N2CCC(N3CCN(C)CC3)CC2)ccc1Nc1ncnc(Nc2ccccc2S(=O)(=O)C(C)C)n1` [ASP3026] (top concentration 10000 nM) was -0.14; that for `COCCOc1cnc2ccn([C@H](C)c3nnc4c(F)cc(-c5cnn(C)c5)cn34)c(=O)c2c1` [AMG-337] (top concentration 10000 nM) was -0.06.
Still for that read-out and setting: the value for `Cc1cnc(NC(=O)Nc2cc(Br)c(C)cc2OC[C@@H]2CNCCO2)cn1` [Rabusertib] (top concentration 1000 nM) was -0.74.
Consider `CNC(=O)c1ccc(-c2cnc3ncc(Cc4ccc5ncccc5c4)n3n2)cc1F` [Capmatinib] (top concentration 1000 nM), for which the “selective drug sensitivity score” value was -0.06.
As to `COc1cc2/c(=N/c3ccc(Br)cc3F)nc[nH]c2cc1OCC1CCN(C)CC1` [Vandetanib] (top concentration 1000 nM), the “selective drug sensitivity score” value is -0.22.

The test system of a further assay is SEM cells. Described as above. The following applies: 72 h.
In the case of `Nc1ncnc2c1c(COc1cccc(Cl)c1)nn2C1CCOCC1` (top concentration 10000 nM), the “selective drug sensitivity score” value is -0.64.
With `CC1(C)CNc2cc(NC(=O)c3cccnc3NCc3ccncc3)ccc21` [Motesanib] (top concentration 10000 nM), the “selective drug sensitivity score” value is -0.22.
In the case of `NC(=O)c1cccc(-c2cccc(OC(=O)NC3CCCCC3)c2)c1` [URB597] (top concentration 1000 nM), the “selective drug sensitivity score” value is -0.46.
Take `CCCN(CCC)C(=O)C1=Cc2ccc(-c3ccc(C(=O)N4CCCC4)cc3)cc2N=C(N)C1` [Motolimod] (top concentration 10000 nM): the “selective drug sensitivity score” value was -3.38.
Regarding `CCCOc1ccn2c(C(C)=O)cc(-c3ccccc3S(C)(=O)=O)c2c1` [GSK2801] (top concentration 10000 nM), the “selective drug sensitivity score” value was -0.36.
In the case of `Nc1cc(COc2c(Cl)cc(C[C@H](N)C(=O)O)cc2Cl)c2oc(-c3ccccc3)nc2c1` [JPH203] (top concentration 5000 nM), the “selective drug sensitivity score” value came to 0.
As to `CC/C(=C(\c1ccccc1)c1ccc(OCCN(C)C)cc1)c1ccccc1` [Tamoxifen] (top concentration 10000 nM), the “selective drug sensitivity score” value was -1.28.
Still for that read-out and setting: under `NC(=S)N/N=C/c1ncccc1N` [Triapine] (top concentration 10000 nM) stands 2.18; under `C=CCN(/C=C1/C(=O)O[C@H](COC)[C@@]2(C)C1=C(O)C(=O)C1=C2[C@H](OC(C)=O)C[C@]2(C)C(=O)CC[C@@H]12)CC=C` [Sonolisib] (top concentration 10000 nM), -0.76.
